Where “and” joins values, the source holds several entries; their conditions need not be identical. Identical values can stand only once. Ends that are not written are not given here.
How the values were obtained:
[1] = target: T1, Soluble mouse EPOR chimera protein (Mus musculus, UniProt P14753); assay: surface plasmon resonance (SPR) binding to erythropoietin receptor; settings: peptide 5, 2.5 and 1.25 μM
T1 construct: Soluble mouse EPOR chimera protein; purchased R&D Systems
T1 sequence (P14753 25-249 limits assumed): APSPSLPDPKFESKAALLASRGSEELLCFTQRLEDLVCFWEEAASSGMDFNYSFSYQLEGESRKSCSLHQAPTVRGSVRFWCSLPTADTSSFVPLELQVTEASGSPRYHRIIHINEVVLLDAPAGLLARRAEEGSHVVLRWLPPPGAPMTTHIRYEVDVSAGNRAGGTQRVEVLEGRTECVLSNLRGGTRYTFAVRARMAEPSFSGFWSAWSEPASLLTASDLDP
Protocol: The SPR technique uses an optical principle to measure the interaction between biomolecules in real time without a specific label, and is a system that analyzes the affinity and kinetics between two molecules, that is, Ka (association rate) and Kd (dissociation rate).
Specifically, the real-time SPR analysis was performed using Reichert SPR Biosensor SR 7500C equipment (Reichert Inc., NY, USA). Receptor mouse EPOR chimera protein (Soluble mouse EPOR chimera protein)(R&D Systems, Minneapolis, Minn., USA) was covalently bonded to a chip (BR-1005-39, Pharmacia Biosensor AB) coated with carboxy methylated dextran matrix by an amine coupling procedure using an amine coupling kit (BR-1000-50, GE Healthcare, USA) according to the manufacturer's manual. Peptides having concentrations of 5, 2.5 and 1.25 μM according to the present disclosure and scrambled peptides were tested by flowing at a flow rate of 5 μl/minute. In addition, the experiment was independently repeated to increase the accuracy. In addition, DMSO was flowed at 5 μl/minute to normalize the signal. After sufficiently inducing the binding of the peptide of an aspect to the receptor, regeneration was induced by injecting 20 μl/minute of 25 mM acetic acid into a sensor chip.

HT-22 cells = assay: cell viability under hypoxia-reoxygenation (H/R) conditions; assay type: cell-based; set-up: cell viability under hypoxia-reoxygenation conditions / cell viability under hypoxia-reoxygenation conditions, Average: unit not given here; settings: for cell viability under hypoxia-reoxygenation conditions, Average: average of 3; for cell viability under hypoxia-reoxygenation conditions: individual replicate
Protocol: First, the degree of cell viability was confirmed. Specifically, HT-22 cells cultured on a 96-well plate or a 6-well plate for 24 hours were maintained under hypoxic condition for 18 hours in a sealed airtight container of Anaeropack (Mitsubishi Gas Company, Tokyo, Japan). The Anaeropack absorbs oxygen and generates carbon dioxide, thereby inducing a hypoxic environment. Next, reoxygenation was performed at 5% CO2 and 37° C. for 3 hours.
Cell viability was compared when treated with SY-1, SY-2 and SY-3 of H/R cells cultured under low oxygen conditions (Hypoxia) and later cultured under oxygen conditions (Reoxygenation).

Row | ka [1] | kd [1] | Sequence | cell viability under hypoxia-reoxygenation conditions, Average (HT-22 cells; 1 uM) | cell viability under hypoxia-reoxygenation conditions (HT-22 cells; 1 uM) | cell viability under hypoxia-reoxygenation conditions, Average (HT-22 cells; 2.5 uM) | cell viability under hypoxia-reoxygenation conditions (HT-22 cells; 2.5 uM) | cell viability under hypoxia-reoxygenation conditions, Average (HT-22 cells; 5 uM) | cell viability under hypoxia-reoxygenation conditions (HT-22 cells; 5 uM) | cell viability under H/R conditions (in words) (HT-22 cells; hypoxia 18 hours, reoxygenation 3 hours)
1 | 25.6240 | 0.0554 | LQLHVLKAVAGLRTLTMIRRALA [SY-3] | 0.726 | 0.722 and 0.736 and 0.719 | 0.735 | 0.739 and 0.741 and 0.724 | 0.727 | 0.707 and 0.732 and 0.741 | the cell viability was the highest
2 | 31.5970 | 0.0446 | LQLHVLKAVSGLRTLTTLLRALG [SY-1] | 0.654 | 0.662 and 0.657 and 0.644 | 0.655 | 0.649 and 0.663 and 0.652 | 0.647 | 0.648 and 0.653 and 0.641 | 
3 | 32.5770 | 0.0506 | LQLHVLKAVSGLRTLTMIRRALG [SY-2] | 0.671 | 0.658 and 0.673 and 0.682 | 0.676 | 0.671 and 0.667 and 0.689 | 0.661 | 0.652 and 0.677 and 0.655 | 
